These results are taken from patent US6407136B1, “1,4-dithiin and 1,4-dithiepin-1,1,4,4, tetroxide derivatives useful as antagonists of the human galanin receptor” (Ortho-McNeil Pharmaceutical, Inc., priority 1999, dated 2002).

pIC50: −log10 of the molar value. Where two headings read alike, the source gives them in different places.

By pIC50 is commonly meant the IC50 on a negative log10 scale, so that one unit is a factor of ten.

The target of assay [1] is T1, hGALR-1 contained in membranes from human Bowes melanoma cells (Homo sapiens, UniProt P47211).
T1 construct: hGALR-1 that is contained in membranes from human Bowes melanoma cells; endogenous in cells; host or cells: human Bowes melanoma cells (membranes)
T1 sequence (P47211 1-349): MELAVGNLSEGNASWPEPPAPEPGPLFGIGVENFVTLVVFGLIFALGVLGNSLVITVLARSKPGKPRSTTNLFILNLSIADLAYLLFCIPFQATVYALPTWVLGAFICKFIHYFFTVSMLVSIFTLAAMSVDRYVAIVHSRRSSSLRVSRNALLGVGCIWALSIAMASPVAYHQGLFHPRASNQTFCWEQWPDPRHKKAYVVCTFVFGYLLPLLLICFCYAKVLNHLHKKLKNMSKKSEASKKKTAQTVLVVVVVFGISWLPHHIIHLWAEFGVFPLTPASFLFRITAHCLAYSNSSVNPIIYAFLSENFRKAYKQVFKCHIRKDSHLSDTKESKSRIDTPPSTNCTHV
In words: Human Galanin-1 Receptor Binding Assay (SPA, 125I human galanin). The conditions noted are these: inhibition of 125I human galanin binding. The procedure: Human Galanin-1 Receptor Binding Assay
This assay determines the concentration (IC50) of a test compound which prevents 50% of galanin from binding to the hGALR-1 that is contained in membranes from human Bowes melanoma cells bound to wheat germ agglutinin conjugated Scintillation Proximity Assay (SPA) beads. The IC50 value is obtained by measuring the effect of half log increment dilutions of the test compound in duplicate using a 96-well plate (eight-rows, 12-columns).
The SPA beads (500 mg) were dissolved in 12.5 mL of assay buffer composed of 20 mM DMSO-HEPES (pH 7.4), 0.1% bovine serum albumin, 2 mM MgCl2, 2 mM CaCl2, and protease inhibitors. Enough of this suspension for five plates (25 μL×5×96 wells=12000 μL) was dispensed into a 50 mL sterile Falcon tube. The amount of membranes required for five plates was then added (50 μg×5×96 wells), followed by 32.5 mL of 30% DMSO-HEPES buffer. The mixture was placed on a rotator and agitated for 0.5 hours and the non-specific binding sites on the beads were blocked by the addition of 5% [final] fetal bovine serum. Each well of the 96-well plate received 100 μL of this mixture.
To the control column (column 12) rows A and B was added 3.75 μL of a 300 μM solution of galantide in 30% DMSO-HEPES buffer, to rows C and D was added 3.75 μL of 30% DMSO-HEPES buffer and to rows E and F was added 3.75 μL of a 300 μM solution of galanin in 30% DMSO-HEPES buffer. In columns 1 through 11 were added solutions of the test compound in 30% DMSO-HEPES buffer starting at 30 μM and decreasing in concentration in half-log dilutions. A solution of radioactive ^125I human galanin (46.25 μL), prepared from 25 micro Curies of ^125I human galanin (2000 ci/mmol) and 500 μL of assay buffer, was added to each well. The plate was sealed with adhesive paper and incubated for 16 hr at room temperature before the quench-corrected bound radioactivity was measured in a Topcount® apparatus. For each dilution, the % inhibition of galanin binding was calculated as follows:
Total binding (T)=Mean counts/minute (cpm) in row C and D in column 12 Non-specific binding (NSB)=Mean cpm in row E and F in column 12 Total specific binding (TS)=T−NSB
net cpm in each well (N)=C−NSB
The IC50 values for each compound were calculated from the non-linear regression curve of the data using Prism® graphics software.

A further assay deals with T2, Rat Galanin-1 Receptor (Rattus norvegicus, UniProt Q62805).
T2 sequence (Q62805 1-346): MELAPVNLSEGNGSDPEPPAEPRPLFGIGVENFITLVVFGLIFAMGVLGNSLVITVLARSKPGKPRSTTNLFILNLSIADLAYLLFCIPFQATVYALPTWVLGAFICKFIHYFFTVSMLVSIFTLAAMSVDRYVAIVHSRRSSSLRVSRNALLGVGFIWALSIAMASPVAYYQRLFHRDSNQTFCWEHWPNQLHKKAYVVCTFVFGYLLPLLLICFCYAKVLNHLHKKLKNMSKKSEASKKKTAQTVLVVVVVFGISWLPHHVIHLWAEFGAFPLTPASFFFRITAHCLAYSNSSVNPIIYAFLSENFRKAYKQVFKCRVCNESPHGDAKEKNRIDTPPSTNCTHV
In words: Rat Galanin-1 Receptor Mediated Inhibition of Acetylcholine Release from Rat Brain Cortical Slices (superfusion). The settings on record: for Acetycholine Secretion, Stimulated (% change) / Acetycholine Secretion, Stimulated: K+-evoked; for Acetycholine Secretion, Stimulated (% change) / Acetycholine Secretion, Basal (% change): percent in brackets, versus control.

Where [2] appears, read: Table II, formula (II) compounds, read-out: hGAL IC50.
Setting [3] is: 10 μM + GAL, mean fractional tritium release.

Description for Rat Galanin-1 Receptor: Rat brain cerebrocortical tissues were chopped into slices of 300×300×3,000 mm using a Mcllwain tissue chopper. […] After incubation, the slices were washed three times with ice-cold physiological solution and resuspended in 6 ml of cold solution. Equal aliquots of the tissue suspension were placed in each of 6 parallel superfusion chambers (Hugo Sachs Elektronik, March-Hugstetten, Germany). A circular piece of nylon mesh (pore size 250 um) was placed just below each chamber outlet in order to prevent the loss of tissue. The chambers were perfused against gravity with oxygenated Krebs-Ringer containing 1 mM physostigmine hemisulfate at a flow rate of 1 ml/min. […] The onset of superfusion was defined as time zero (t0). Starting at 30 min after t0, 10 min fractions of the effluent were collected.
Release of [^3H]acetylcholine was induced by superfusing tissues for 30 sec with 65 mM K^+-Krebs-Ringer solution (made by isomolar replacement of NaCl with KCl). Four potassium pulses were given respectively at 40 min (S1), 70 min (S2), 100 min (S3) and 130 min (S4) after t0. […] To permit construction of concentration-effect curves, concentrations of agents were increased 10 fold between each stimulus.
Following perfusion, the tissue was homogenized in 1 ml ethanol and aliquots of superfusates (0.4 ml) and tissue homogenates (0.04 ml) were added to 5 ml of Scintsafe PlusTM 50% (Fisher Scientific, Pittsburgh, Pa.) and radioactivity counted by liquid scintillation spectrometry. The total ^3H content in this procedure consisted mainly of [^3H]acetylcholine.
Tritium (^3H) efflux into the superfusate was calculated as the fraction of tritium content in the slices or synaptosomes at the onset of the respective collection period. For calculation of the stimulated tritium overflow, the estimated basal efflux (the average of the 10 min fractions immediately before and after each stimulation) was subtracted from the total tritium efflux during the 10 min fraction which began with the 30 sec K^+ pulse. This difference was then used to calculate the percent of K^+-evoked release of acetylcholine.
In order to quantify the in vitro effect of a drug on stimulated tritium outflow, the ratio of the fraction released by a given pulse, Sn, to that evoked by S1, was determined. Data presented below are expressed as the mean fractional tritium release ±S.E.M. Statistical differences between treatments were tested by the two-tailed Student's t test or the two factor ANOVA as appropriate. Individual differences in the dose-response curve was evaluated by the Newman-Keul multiple comparison.

Consider `COc1cccc(C2=CS(=O)(=O)CCCS2(=O)=O)c1` [Cmpd 15], for which, in assay [1] (setting [2]), the pIC50 was 5.96.
For `O=S1(=O)C=C(c2ccc(Br)cc2)S(=O)(=O)CC1` [Cmpd 2], in assay [1] (Table I, formula (I) compounds, read-out: HGAL IC50), the pIC50 is 6.00.
As to `O=S1(=O)C=C(c2ccc(I)cc2)S(=O)(=O)CCC1` [Cmpd 17], the “Acetycholine Secretion, Stimulated (% change)” value is listed as −35.2% at Rat Galanin-1 Receptor (1 μM + GAL) and −22.3% at Rat Galanin-1 Receptor (10 μM + GAL). Also, the “Acetycholine Secretion, Basal (% change)” value was −39.2% on Rat Galanin-1 Receptor (1 μM + GAL) and −37% at Rat Galanin-1 Receptor (10 μM + GAL).
In the case of `O=S1(=O)C=C(c2cccc(F)c2)S(=O)(=O)CCC1` [Cmpd 16], in assay [1] (setting [2]), the pIC50 was 5.89. Also, the “Acetycholine Secretion, Stimulated” value on Rat Galanin-1 Receptor (1 μM + GAL, mean fractional tritium release) was 6.31. Besides, on Rat Galanin-1 Receptor (1 μM + GAL), the “Acetycholine Secretion, Stimulated (% change)” value is −23.9% and the “Acetycholine Secretion, Basal (% change)” value is given as −38.9%. In addition, on Rat Galanin-1 Receptor (setting [3]), the “Acetycholine Secretion, Stimulated” value is given as 8.27 and the “Acetycholine Secretion, Basal” value stood at 2.28. Moreover, the “Acetycholine Secretion, Basal (% change)” value at Rat Galanin-1 Receptor (10 μM + GAL) was −37%.
Consider `O=S1(=O)C=C(c2ccc(Cl)cc2)S(=O)(=O)CCC1` [Cmpd 21], for which the pIC50 in assay [1] (setting [2]) is 5.72.
